Key:
Type in all cases: in vivo
oval-leafed pondweed [1] = assay: Test Example 1: weedkilling efficacy, preemergent weed treatment in the submerged state; C: oval-leafed pondweed; conditions: treatment dosage 252 g/ha
Method in brief: (§1)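 Pre-emergence application onto floodwater (4 cm, alluvial soil) on the day of sowing, dose expressed as g/ha from diluted emulsion formulation. Weeds sown with 2.5-leaf transplanted rice as crop; plants held at 25–30 °C in greenhouse and scored against assessment criteria after 3 weeks.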

oval-leafed pondweed [2] = assay: Test Example 2: weedkilling efficacy, growth period weed treatment in the submerged state; C: oval-leafed pondweed; conditions: treatment dosage 252 g/ha
Method in brief: (§2)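 Weeds treated at the 1-2 leaf stage by application of diluted emulsion onto floodwater (4 cm depth, alluvial soil) at specified g/ha. Grown in greenhouse at 25 to 30° C; herbicidal effect rated three weeks after treatment.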

crabgrass [3] = assay: Test Example 4: weedkilling efficacy by foliar treatment; D: crabgrass; conditions: treatment dosage 315 g/ha
Method in brief: (§3)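 Seeds are spot-sown into sterilized diluvial soil and covered with about 1.5 cm of soil. After 14 days' greenhouse growth at 25 to 30° C, plants are sprayed on stems and leaves with diluted emulsion at the stated g/ha rate, then scored at 3 weeks.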

Indian mallow [4] = assay: Test Example 3: weedkilling efficacy through soil treatment; K: Indian mallow; conditions: treatment dosage 315 g/ha
Method in brief: (§4)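 Crop and weed responses were judged three weeks after a uniform surface spray of the water-diluted emulsion at the given g/ha rate. Seeds sat beneath about 1.5 cm of sterilized diluvial soil, and boxes stood in a greenhouse at 25 to 30° C.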

soybean [5] = assay: Test Example 3: soil treatment, effect on crop; d: soybean; conditions: treatment dosage 315 g/ha
Method in brief: as §4

wheat [6] = assay: Test Example 3: soil treatment, effect on crop; e: wheat; conditions: treatment dosage 315 g/ha
Method in brief: as §4

catchweed [7] = assay: Test Example 3: weedkilling efficacy through soil treatment; O: catchweed; conditions: treatment dosage 315 g/ha
Method in brief: as §4

Italian ryegrass [8] = assay: Test Example 3: weedkilling efficacy through soil treatment; I: Italian ryegrass; conditions: treatment dosage 315 g/ha
Method in brief: as §4

crabgrass [9] = assay: Test Example 3: weedkilling efficacy through soil treatment; D: crabgrass; conditions: treatment dosage 315 g/ha
Method in brief: as §4

catchweed [10] = assay: Test Example 4: weedkilling efficacy by foliar treatment; O: catchweed; conditions: treatment dosage 315 g/ha
Method in brief: as §3

redroot pigweed [11] = assay: Test Example 4: weedkilling efficacy by foliar treatment; L: redroot pigweed; conditions: treatment dosage 315 g/ha
Method in brief: as §3

directly sown rice [12] = assay: Test Example 3: soil treatment, effect on crop; b: directly sown rice; conditions: treatment dosage 315 g/ha
Method in brief: as §4

corn [13] = assay: Test Example 4: foliar treatment, effect on crop; c: corn; conditions: treatment dosage 315 g/ha
Method in brief: as §3

beet [14] = assay: Test Example 4: foliar treatment, effect on crop; f: beet; conditions: treatment dosage 315 g/ha
Method in brief: as §3

birds-eye speedwell [15] = assay: Test Example 4: weedkilling efficacy by foliar treatment; p: birds-eye speedwell; conditions: treatment dosage 315 g/ha
Method in brief: as §3

fig-leafed goosefoot [16] = assay: Test Example 4: weedkilling efficacy by foliar treatment; M: fig-leafed goosefoot; conditions: treatment dosage 315 g/ha
Method in brief: as §3

barnyard grass [17] = assay: Test Example 1: weedkilling efficacy, preemergent weed treatment in the submerged state; A: barnyard grass; conditions: treatment dosage 252 g/ha
Method in brief: as §1

directly sown rice [18] = assay: Test Example 4: foliar treatment, effect on crop; b: directly sown rice; conditions: treatment dosage 315 g/ha
Method in brief: as §3

soybean [19] = assay: Test Example 4: foliar treatment, effect on crop; d: soybean; conditions: treatment dosage 315 g/ha
Method in brief: as §3

bulrush [20] = assay: Test Example 2: weedkilling efficacy, growth period weed treatment in the submerged state; B: bulrush; conditions: treatment dosage 252 g/ha
Method in brief: as §2

wheat [21] = assay: Test Example 4: foliar treatment, effect on crop; e: wheat; conditions: treatment dosage 315 g/ha
Method in brief: as §3

birds-eye speedwell [22] = assay: Test Example 3: weedkilling efficacy through soil treatment; p: birds-eye speedwell; conditions: treatment dosage 315 g/ha
Method in brief: as §4

chickweed [23] = assay: Test Example 4: weedkilling efficacy by foliar treatment; N: chickweed; conditions: treatment dosage 315 g/ha
Method in brief: as §3

chickweed [24] = assay: Test Example 3: weedkilling efficacy through soil treatment; N: chickweed; conditions: treatment dosage 315 g/ha
Method in brief: as §4

bulrush [25] = assay: Test Example 1: weedkilling efficacy, preemergent weed treatment in the submerged state; B: bulrush; conditions: treatment dosage 252 g/ha
Method in brief: as §1

wild oat [26] = assay: Test Example 3: weedkilling efficacy through soil treatment; G: wild oat; conditions: treatment dosage 315 g/ha
Method in brief: as §4

beet [27] = assay: Test Example 3: soil treatment, effect on crop; f: beet; conditions: treatment dosage 315 g/ha
Method in brief: as §4

transplanted rice = assay: Test Example 1: preemergent weed treatment in the submerged state, effect on crop; a: transplanted rice; conditions: treatment dosage 252 g/ha
Method in brief: as §1

green foxtail [28] = assay: Test Example 3: weedkilling efficacy through soil treatment; E: green foxtail; conditions: treatment dosage 315 g/ha
Method in brief: as §4

barnyard grass [29] = assay: Test Example 2: weedkilling efficacy, growth period weed treatment in the submerged state; A: barnyard grass; conditions: treatment dosage 252 g/ha
Method in brief: as §2

corn [30] = assay: Test Example 3: soil treatment, effect on crop; c: corn; conditions: treatment dosage 315 g/ha
Method in brief: as §4

black-grass [31] = assay: Test Example 4: weedkilling efficacy by foliar treatment; H: black-grass; conditions: treatment dosage 315 g/ha
Method in brief: as §3

wild oat [32] = assay: Test Example 4: weedkilling efficacy by foliar treatment; G: wild oat; conditions: treatment dosage 315 g/ha
Method in brief: as §3

Italian ryegrass [33] = assay: Test Example 4: weedkilling efficacy by foliar treatment; I: Italian ryegrass; conditions: treatment dosage 315 g/ha
Method in brief: as §3

fig-leafed goosefoot [34] = assay: Test Example 3: weedkilling efficacy through soil treatment; M: fig-leafed goosefoot; conditions: treatment dosage 315 g/ha
Method in brief: as §4

green foxtail [35] = assay: Test Example 4: weedkilling efficacy by foliar treatment; E: green foxtail; conditions: treatment dosage 315 g/ha
Method in brief: as §3

Indian mallow [36] = assay: Test Example 4: weedkilling efficacy by foliar treatment; K: Indian mallow; conditions: treatment dosage 315 g/ha
Method in brief: as §3

redroot pigweed [37] = assay: Test Example 3: weedkilling efficacy through soil treatment; L: redroot pigweed; conditions: treatment dosage 315 g/ha
Method in brief: as §4

black-grass [38] = assay: Test Example 3: weedkilling efficacy through soil treatment; H: black-grass; conditions: treatment dosage 315 g/ha
Method in brief: as §4

CC1=C(c2ccccc2)C(=O)N(C(C)(C)C(=O)Nc2cc(F)ccn2)CO1 [B-2-25] was tested, and the “C (oval-leafed pondweed) weedkilling efficacy grade” value (oval-leafed pondweed [1]) was 5 (weed kill ratio 90% or more, (practically complete withering)), the “C (oval-leafed pondweed) weedkilling efficacy grade” value (oval-leafed pondweed [2]) was 5 (weed kill ratio 90% or more, (practically complete withering)) and the “D (crabgrass) weedkilling efficacy grade” value (crabgrass [3]) was 5 (weed kill ratio 90% or more, (practically complete withering)). The “K (Indian mallow) weedkilling efficacy grade” value (Indian mallow [4]) was 4 (weed kill ratio 70% or more, less than 90%), the “d (soybean) effect on crop grade” value (soybean [5]) was 0 (weed kill ratio 5% or less (practically no effect)) and the “e (wheat) effect on crop grade” value (wheat [6]) was 1 (weed kill ratio 5% or more, less than 20%). The “O (catchweed) weedkilling efficacy grade” value (catchweed [7]) was 5 (weed kill ratio 90% or more, (practically complete withering)), the “I (Italian ryegrass) weedkilling efficacy grade” value (Italian ryegrass [8]) was 5 (weed kill ratio 90% or more, (practically complete withering)) and the “D (crabgrass) weedkilling efficacy grade” value (crabgrass [9]) was 5 (weed kill ratio 90% or more, (practically complete withering)). The “O (catchweed) weedkilling efficacy grade” value (catchweed [10]) was 5 (weed kill ratio 90% or more, (practically complete withering)), the “L (redroot pigweed) weedkilling efficacy grade” value (redroot pigweed [11]) was 2 (weed kill ratio 20% or more, less than 40%) and the “b (directly sown rice) effect on crop grade” value (directly sown rice [12]) was 5 (weed kill ratio 90% or more, (practically complete withering)). The “c (corn) effect on crop grade” value (corn [13]) was 3 (weed kill ratio 40% or more, less than 70%), the “f (beet) effect on crop grade” value (beet [14]) was 3 (weed kill ratio 40% or more, less than 70%) and the “P (birds-eye speedwell) weedkilling efficacy grade” value (birds-eye speedwell [15]) was 5 (weed kill ratio 90% or more, (practically complete withering)). The “M (fig-leafed goosefoot) weedkilling efficacy grade” value (fig-leafed goosefoot [16]) was 4 (weed kill ratio 70% or more, less than 90%), the “A (barnyard grass) weedkilling efficacy grade” value (barnyard grass [17]) was 5 (weed kill ratio 90% or more, (practically complete withering)) and the “b (directly sown rice) effect on crop grade” value (directly sown rice [18]) was 5 (weed kill ratio 90% or more, (practically complete withering)). The “d (soybean) effect on crop grade” value (soybean [19]) was 3 (weed kill ratio 40% or more, less than 70%), the “B (bulrush) weedkilling efficacy grade” value (bulrush [20]) was 5 (weed kill ratio 90% or more, (practically complete withering)) and the “e (wheat) effect on crop grade” value (wheat [21]) was 0 (weed kill ratio 5% or less (practically no effect)). For the same molecule, the “P (birds-eye speedwell) weedkilling efficacy grade” value (birds-eye speedwell [22]) was 5 (weed kill ratio 90% or more, (practically complete withering)), the “N (chickweed) weedkilling efficacy grade” value (chickweed [23]) was 4 (weed kill ratio 70% or more, less than 90%) and the “N (chickweed) weedkilling efficacy grade” value (chickweed [24]) was 4 (weed kill ratio 70% or more, less than 90%). The “B (bulrush) weedkilling efficacy grade” value (bulrush [25]) was 5 (weed kill ratio 90% or more, (practically complete withering)), the “G (wild oat) weedkilling efficacy grade” value (wild oat [26]) was 5 (weed kill ratio 90% or more, (practically complete withering)) and the “f (beet) effect on crop grade” value (beet [27]) was 2 (weed kill ratio 20% or more, less than 40%). The “a (transplanted rice) effect on crop grade” value (transplanted rice) was 2 (weed kill ratio 20% or more, less than 40%), the “E (green foxtail) weedkilling efficacy grade” value (green foxtail [28]) was 5 (weed kill ratio 90% or more, (practically complete withering)) and the “A (barnyard grass) weedkilling efficacy grade” value (barnyard grass [29]) was 5 (weed kill ratio 90% or more, (practically complete withering)). The “c (corn) effect on crop grade” value (corn [30]) was 3 (weed kill ratio 40% or more, less than 70%), the “H (black-grass) weedkilling efficacy grade” value (black-grass [31]) was 5 (weed kill ratio 90% or more, (practically complete withering)) and the “G (wild oat) weedkilling efficacy grade” value (wild oat [32]) was 5 (weed kill ratio 90% or more, (practically complete withering)). For the same molecule, the “I (Italian ryegrass) weedkilling efficacy grade” value (Italian ryegrass [33]) was 5 (weed kill ratio 90% or more, (practically complete withering)), the “M (fig-leafed goosefoot) weedkilling efficacy grade” value (fig-leafed goosefoot [34]) was 4 (weed kill ratio 70% or more, less than 90%) and the “E (green foxtail) weedkilling efficacy grade” value (green foxtail [35]) was 5 (weed kill ratio 90% or more, (practically complete withering)). For the same molecule, the “K (Indian mallow) weedkilling efficacy grade” value (Indian mallow [36]) was 4 (weed kill ratio 70% or more, less than 90%), the “L (redroot pigweed) weedkilling efficacy grade” value (redroot pigweed [37]) was 3 (weed kill ratio 40% or more, less than 70%) and the “H (black-grass) weedkilling efficacy grade” value (black-grass [38]) was 5 (weed kill ratio 90% or more, (practically complete withering)).

Reference: patent US9738634B2, “Heterocyclic amide compound and herbicide” (SYNGENTA PARTICIPATIONS AG, priority 2013, dated 2017)
